What was measured:
Test in all cases: relative viability (nuclei count vs DMSO), 5 days (fraction); higher = more cells survive
[1] = compound: CN(C)CC1=CC(=CC=C1)N=C(C2=CC=CC=C2)C3=C(NC4=C3C=CC(=C4)C(=O)N(C)C)O + CCNC(=O)c1noc(-c2cc(C(C)C)c(O)cc2O)c1-c1ccc(CN2CCOCC2)cc1 [Luminespib] (partner 0.01 µM)
In short: (§1)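 Each reported value is a median over duplicate plates. It expresses relative viability: treated-well nuclei count divided by vehicle-well nuclei count. Lung cancer cell lines in 1536-well plates were dosed by pin tool a day after seeding, alone with one drug or with a fixed anchor-drug dose plus five library-drug doses (not always all listed) in √10 steps, and nuclei were counted after 5 days.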

[2] = compound: CN(C)CC1=CC(=CC=C1)N=C(C2=CC=CC=C2)C3=C(NC4=C3C=CC(=C4)C(=O)N(C)C)O + O=C(c1cc(Cc2n[nH]c(=O)c3ccccc23)ccc1F)N1CCN(C(=O)C2CC2)CC1 [Olaparib] (partner 8 µM)
In short: as §1

[3] = compound: CN(C)CC1=CC(=CC=C1)N=C(C2=CC=CC=C2)C3=C(NC4=C3C=CC(=C4)C(=O)N(C)C)O + Nc1ncn([C@H]2C[C@H](O)[C@@H](CO)O2)c(=O)n1 [Decitabine] (partner 2 µM)
In short: as §1

[4] = compound: CN(C)CC1=CC(=CC=C1)N=C(C2=CC=CC=C2)C3=C(NC4=C3C=CC(=C4)C(=O)N(C)C)O + CS(=O)(=O)CCNCc1ccc(-c2ccc3ncnc(Nc4ccc(OCc5cccc(F)c5)c(Cl)c4)c3c2)o1 [Lapatinib] (partner 2 µM)
In short: as §1

| Cell Line | relative viability ([1]; first compound 0.08 µM) | relative viability ([1]; first compound 0.253 µM) | relative viability ([1]; first compound 0.8 µM) | relative viability ([1]; first compound 2.53 µM) | relative viability ([1]; first compound 8 µM) | relative viability ([2]; first compound 0.08 µM) | relative viability ([2]; first compound 0.253 µM) | relative viability ([2]; first compound 2.53 µM) | relative viability ([2]; first compound 8 µM) | relative viability ([3]; first compound 0.08 µM) | relative viability ([3]; first compound 0.253 µM) | relative viability ([3]; first compound 2.53 µM) | relative viability ([3]; first compound 8 µM) | relative viability ([4]; first compound 0.08 µM) | relative viability ([4]; first compound 0.253 µM) | relative viability ([4]; first compound 0.8 µM) | relative viability ([4]; first compound 2.53 µM) | relative viability ([4]; first compound 8 µM) | relative viability ([2]; first compound 0.8 µM) | relative viability ([3]; first compound 0.8 µM) |
| --- | --- | --- | --- | --- | --- | --- | --- | --- | --- | --- | --- | --- | --- | --- | --- | --- | --- | --- | --- | --- |
| EKVX | 0.864 | 0.921 | 1 | 0.927 | 1.06 | 0.83 | 0.781 | 0.837 | 0.862 | 0.41 | 0.321 | 0.36 | 0.34 | 0.196 | 0.294 | 0.205 | 0.224 | 0.23 |  |  |
| NCI-H1993 | 0.817 | 0.796 | 0.748 | 0.939 | 0.924 | 0.772 | 1.1 | 1.12 | 1.06 | 0.643 | 0.55 | 0.617 | 0.687 | 1.09 | 0.882 | 0.827 | 0.826 | 0.706 |  |  |
| SW 1573 | 0.162 | 0.269 | 0.207 | 0.296 | 0.183 | 0.362 | 0.416 | 0.523 | 0.377 | 0.496 | 0.46 | 0.562 | 0.573 | 1.1 | 1.24 | 1.13 | 1.08 | 0.955 | 0.419 | 0.659 |
| LXF-289 | 0.694 | 0.675 | 0.6 | 0.652 | 0.623 | 1.11 | 1.03 | 0.993 | 1.03 | 0.343 | 0.368 | 0.384 | 0.374 | 0.888 | 0.887 | 0.893 | 0.86 | 0.815 | 1.03 | 0.366 |
| NCI-H3122 | 0.0882 | 0.0788 | 0.075 | 0.142 | 0.0907 | 0.587 | 0.587 | 0.59 | 0.721 | 0.508 | 0.387 | 0.504 | 0.46 | 0.96 | 0.971 | 1.01 | 0.983 | 0.997 | 0.678 | 0.454 |
| NCI-H23 | 0.21 | 0.203 | 0.196 | 0.242 | 0.243 |  | 0.284 | 0.316 | 0.345 |  | 0.332 | 0.343 | 0.346 | 1.39 | 1.26 | 1.03 | 0.984 | 0.886 | 0.365 | 0.303 |
| HOP-62 | 0.818 | 0.933 | 0.977 | 0.929 | 1.05 | 0.373 | 0.327 | 0.251 | 0.504 | 0.21 | 0.282 | 0.206 | 0.262 | 1.03 | 1.11 | 1.14 | 1.05 | 0.946 | 0.361 | 0.195 |
| LC-2-ad | 1.01 | 0.894 | 1.06 | 0.863 | 0.973 | 0.663 | 0.771 | 0.723 | 0.827 | 0.694 | 0.848 | 0.841 | 0.782 | 1.03 | 0.893 | 0.879 | 0.876 | 0.981 | 0.729 | 0.747 |

Source: the supplement of paper PMC10307832
